Values quoted from earlier work, collected in patent publication US20060251623A1, “Packaged virus-like particles” (priority 2003, published 2006).

Tests used:
[1] = tested on: VLP-induced CTL responses; details: TLR ligand alone compared with CpGs; Schwarz et al., (2003) Eur. J. Immunol., 33, 1465-1470
[2] = tested on: blood cells; details: Kuramoto E. et al., Japanese Journal Cancer Research 83, 1128-1131 (1992)

Row | Molecule | Enhancement of VLP-induced CTL responses [1] | Stimulation of blood cells in vitro [2]
1 | CC(C)Cn1cnc2c(N)nc3ccccc3c21 [imiquimode] | failed to enhance VLP-induced CTL responses in a way similar to CpGs | –
2 | GGGGGGGGGGGACGATCGTCGGGGGGGGGG [SEQ ID NO: 54] | – | able to stimulate blood cells in vitro
3 | flagellin | failed to enhance VLP-induced CTL responses in a way similar to CpGs | –
4 | polyinosinic-polycytidylic acid [poly (I:C)] | failed to enhance VLP-induced CTL responses in a way similar to CpGs | –
